Test results as given in publication PMC9030223, “MBP-11901 Inhibits Tumor Growth of Hepatocellular Carcinoma through Multitargeted Inhibition of Receptor Tyrosine Kinases” (Cancers, 2022).

Key:
[1] = Pharmacokinetics in mice (data not shown); assay type: in vivo
MAP4K2 = target: T1, MAP4K2 (Homo sapiens, UniProt Q12851); test: KINOMEscan competition binding / KdELECT
T1 construct: purchased Eurofins DiscoverX Corporation
Experimental: (§1) The profiling of MBP-11901 against a panel of 468 kinases was performed by DiscoverX using KINOMEscan technology, an active-site-dependent competition-binding assay (Eurofins DiscoverX Corporation, San Diego, CA, USA). Binding constants (Kd) were calculated by DiscoverX using KdELECT technology, a widely used assay for comparing selectivity across the kinome. The DiscoverX platform reports the thermodynamic Kd to facilitate direct comparison of inhibitor affinity across the kinome, independent of ATP concentration.

PDGFRβ = target: T2, PDGFRβ (Homo sapiens, UniProt P09619); test: KINOMEscan competition binding / KdELECT
T2 construct: purchased Eurofins DiscoverX Corporation
Experimental: as §1

FLT3 = target: T3, FLT3 (Homo sapiens, UniProt P36888); test: KINOMEscan competition binding / KdELECT
T3 construct: purchased Eurofins DiscoverX Corporation
Experimental: as §1

MEK5 = target: T4, MEK5 (Homo sapiens, UniProt Q13163); test: KINOMEscan competition binding / KdELECT
T4 construct: purchased Eurofins DiscoverX Corporation
Experimental: as §1

VEGFR2 = target: T5, VEGFR2 (Homo sapiens, UniProt P35968); test: KINOMEscan competition binding / KdELECT
T5 construct: purchased Eurofins DiscoverX Corporation
Experimental: as §1

FLT3(K663Q) = target: T6, FLT3(K663Q) (Homo sapiens, UniProt P36888, K663Q); test: KINOMEscan competition binding; settings: 10000 nM; lower = stronger binding; read-out: % Control
T6 construct: purchased Eurofins DiscoverX Corporation
Experimental: as §1

FLT3(N841I) = target: T7, FLT3(N841I) (Homo sapiens, UniProt P36888, N841I); test: KINOMEscan competition binding; settings: 10000 nM; lower = stronger binding; read-out: % Control
T7 construct: purchased Eurofins DiscoverX Corporation
Experimental: as §1

FLT3(D835H) = target: T8, FLT3(D835H) (Homo sapiens, UniProt P36888, D835H); test: KINOMEscan competition binding; settings: 10000 nM; lower = stronger binding; read-out: % Control
T8 construct: purchased Eurofins DiscoverX Corporation
Experimental: as §1

FLT3(D835Y) = target: T9, FLT3(D835Y) (Homo sapiens, UniProt P36888, D835Y); test: KINOMEscan competition binding; settings: 10000 nM; lower = stronger binding; read-out: % Control
T9 construct: purchased Eurofins DiscoverX Corporation
Experimental: as §1

FLT3(D835V) = target: T10, FLT3(D835V) (Homo sapiens, UniProt P36888, D835V); test: KINOMEscan competition binding; settings: 10000 nM; lower = stronger binding; read-out: % Control
T10 construct: purchased Eurofins DiscoverX Corporation
Experimental: as §1

FLT3- autoinhibited = target: T11, FLT3- autoinhibited (Homo sapiens, UniProt P36888); test: KINOMEscan competition binding; settings: 10000 nM; lower = stronger binding; read-out: % Control
T11 construct: purchased Eurofins DiscoverX Corporation
Experimental: as §1

[2] = test system: cleaved PARP and active caspase-3 in HepG2 cells; test: Western blot of apoptosis markers; assay type: cell-based, human; settings: HepG2, time- and dose-dependent
Experimental: HepG2 cells were seeded in a 60 mm^2 culture dish at a density of 1.5 × 10^6 cells/dish and incubated for 24 h. Cells were treated with MBP-11901 for 24 h. Cells were harvested and protein extraction and Western blotting methods were performed as previously described. Membranes were incubated using the following diluted primary antibodies; PARP (1:1000 dilution), caspase-3 (1:1000 dilution), cleaved caspase-3 (1:1000 dilution), pFLT3 (1:500 dilution), Ras (1:1000 dilution), pc-Raf (1:1000 dilution), pMEK1/2 (1:1000 dilution), pERK1/2 (1:1000 dilution), pAKT (1:1000 dilution), pmTOR (1:1000 dilution), pVEGFR2 (1:1000 dilution), pPDGFR β (1:2000 dilution), and β-actin (1:1000 dilution) in Tris-HCl-based buffer containing 0.2% Tween-20 (T1027, Biosesang, Seongnam, Korea) (TBS-T; pH 7.5). Membranes were then incubated with horseradish-conjugated secondary antibodies (1:5000, Cell Signaling Technologies, Beverly, MA, USA) for 1 h at 25 °C. After washing with TBS-T, immunoreactive bands were visualized using the chemiluminescence western imaging system (Supernova-Q1800TM, Centronics, Daejeon, Korea). Band intensities were measured using ImageJ (Version 1.50i; US National Institutes of Health, Bethesda, MD, USA) and were normalized to β-actin.

[3] = test system: HepG2-Luc orthotopic liver tumor; test: Orthotopic HCC mouse model (HepG2-Luc bioluminescence); assay type: in vivo; settings: 82 mg/kg oral once every other day
Experimental: The orthotopic HCC mouse model was established by placing a small piece of tumor-derived HepG2-Luc cells. Mice were randomly distributed into 3 groups upon bioluminescence signal reaching 10^7. The first group served as the saline control. The second and third groups were orally administered MBP-11901 (82 mg/kg) and Nexavar® (164 mg/kg) once every other day for 4 weeks. Tumor progression/regression was recorded once weekly by quantifying the bioluminescence signals. Experimental animals were sacrificed by CO2 inhalation.

FGFR1 = target: T12, FGFR1 (Homo sapiens, UniProt P11362); test: KdELECT binding constant
T12 construct: purchased Eurofins DiscoverX Corporation
Experimental: as §1

EGFR = target: T13, EGFR (Homo sapiens, UniProt P00533); test: KdELECT binding constant
T13 construct: purchased Eurofins DiscoverX Corporation
Experimental: as §1

FGFR2 = target: T14, FGFR2 (Homo sapiens, UniProt P21802); test: KdELECT binding constant
T14 construct: purchased Eurofins DiscoverX Corporation
Experimental: as §1

KIT = target: T15, KIT (Homo sapiens, UniProt P10721); test: KdELECT binding constant; settings: mean ± S.D. (n = 2)
T15 construct: purchased Eurofins DiscoverX Corporation
Experimental: as §1

HepG2 cells = test: JC-1 mitochondrial membrane potential assay; assay type: cell-based, human
Experimental: Alterations in MMP were investigated utilizing the cationic dye tetraethylbenzimidazolylcarbocyanine iodide (JC-1) according to the manufacturer’s instructions (Cat. ab113850, Abcam, Cambridge, MA, USA). HepG2 cells were seeded in a 35 mm^2 dish at a density of 7.5 × 10^5 cells/dish and incubated for 24 h. Cells were treated with MBP-11901 for 2 h and media was changed with fresh one. Briefly, after 2 d incubation, cells were washed with 1× dilution buffer, and incubated with 1 μM JC-1 in 1× dilution buffer for 30 min at 37 °C. Cells were then washed 3 times with 1× dilution buffer. Fluorescence was measured under a fluorescence microscope (ECLIPSE Ti, Nikon, Melville, NY, USA) using an excitation filter of 530 nm ± 15 nm and an emission filter of 590 nm ± 17.5 nm.

MDA-MB-231 = test: CCK-8 cell proliferation/cytotoxicity assay; assay type: cell-based; settings: Homo sapiens, MDA-MB-231, 24 h
[4] = 10000 nM, lower = stronger binding, read-out: % Control

T2 sequence (P09619 33-1106): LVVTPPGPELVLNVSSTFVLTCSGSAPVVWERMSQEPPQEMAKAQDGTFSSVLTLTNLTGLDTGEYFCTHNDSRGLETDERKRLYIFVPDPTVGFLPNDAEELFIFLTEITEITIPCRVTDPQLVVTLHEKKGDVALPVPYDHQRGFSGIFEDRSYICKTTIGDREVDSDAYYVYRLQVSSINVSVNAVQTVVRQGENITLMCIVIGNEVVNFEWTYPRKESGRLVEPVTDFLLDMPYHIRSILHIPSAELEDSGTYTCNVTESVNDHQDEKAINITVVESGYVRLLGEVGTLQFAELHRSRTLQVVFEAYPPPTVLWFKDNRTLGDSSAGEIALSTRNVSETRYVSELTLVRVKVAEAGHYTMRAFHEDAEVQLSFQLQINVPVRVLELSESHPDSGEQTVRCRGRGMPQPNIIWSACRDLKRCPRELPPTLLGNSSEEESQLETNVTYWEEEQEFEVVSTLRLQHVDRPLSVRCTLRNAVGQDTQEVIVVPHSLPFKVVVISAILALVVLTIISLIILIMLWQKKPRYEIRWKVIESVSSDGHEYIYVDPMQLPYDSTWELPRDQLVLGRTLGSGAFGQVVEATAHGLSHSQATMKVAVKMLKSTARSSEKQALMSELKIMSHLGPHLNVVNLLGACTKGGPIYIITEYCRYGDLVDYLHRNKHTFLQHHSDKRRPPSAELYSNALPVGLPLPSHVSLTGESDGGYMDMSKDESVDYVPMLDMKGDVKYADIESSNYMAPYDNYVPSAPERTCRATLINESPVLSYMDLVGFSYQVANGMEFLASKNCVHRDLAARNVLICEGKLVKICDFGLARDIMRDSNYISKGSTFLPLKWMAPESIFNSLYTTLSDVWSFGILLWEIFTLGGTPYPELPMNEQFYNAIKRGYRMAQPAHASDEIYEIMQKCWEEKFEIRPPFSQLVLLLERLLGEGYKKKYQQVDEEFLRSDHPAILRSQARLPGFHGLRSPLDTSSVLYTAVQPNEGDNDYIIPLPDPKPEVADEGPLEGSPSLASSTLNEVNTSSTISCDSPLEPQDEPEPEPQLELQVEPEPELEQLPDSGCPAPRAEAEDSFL
T5 sequence (P35968 20-1356): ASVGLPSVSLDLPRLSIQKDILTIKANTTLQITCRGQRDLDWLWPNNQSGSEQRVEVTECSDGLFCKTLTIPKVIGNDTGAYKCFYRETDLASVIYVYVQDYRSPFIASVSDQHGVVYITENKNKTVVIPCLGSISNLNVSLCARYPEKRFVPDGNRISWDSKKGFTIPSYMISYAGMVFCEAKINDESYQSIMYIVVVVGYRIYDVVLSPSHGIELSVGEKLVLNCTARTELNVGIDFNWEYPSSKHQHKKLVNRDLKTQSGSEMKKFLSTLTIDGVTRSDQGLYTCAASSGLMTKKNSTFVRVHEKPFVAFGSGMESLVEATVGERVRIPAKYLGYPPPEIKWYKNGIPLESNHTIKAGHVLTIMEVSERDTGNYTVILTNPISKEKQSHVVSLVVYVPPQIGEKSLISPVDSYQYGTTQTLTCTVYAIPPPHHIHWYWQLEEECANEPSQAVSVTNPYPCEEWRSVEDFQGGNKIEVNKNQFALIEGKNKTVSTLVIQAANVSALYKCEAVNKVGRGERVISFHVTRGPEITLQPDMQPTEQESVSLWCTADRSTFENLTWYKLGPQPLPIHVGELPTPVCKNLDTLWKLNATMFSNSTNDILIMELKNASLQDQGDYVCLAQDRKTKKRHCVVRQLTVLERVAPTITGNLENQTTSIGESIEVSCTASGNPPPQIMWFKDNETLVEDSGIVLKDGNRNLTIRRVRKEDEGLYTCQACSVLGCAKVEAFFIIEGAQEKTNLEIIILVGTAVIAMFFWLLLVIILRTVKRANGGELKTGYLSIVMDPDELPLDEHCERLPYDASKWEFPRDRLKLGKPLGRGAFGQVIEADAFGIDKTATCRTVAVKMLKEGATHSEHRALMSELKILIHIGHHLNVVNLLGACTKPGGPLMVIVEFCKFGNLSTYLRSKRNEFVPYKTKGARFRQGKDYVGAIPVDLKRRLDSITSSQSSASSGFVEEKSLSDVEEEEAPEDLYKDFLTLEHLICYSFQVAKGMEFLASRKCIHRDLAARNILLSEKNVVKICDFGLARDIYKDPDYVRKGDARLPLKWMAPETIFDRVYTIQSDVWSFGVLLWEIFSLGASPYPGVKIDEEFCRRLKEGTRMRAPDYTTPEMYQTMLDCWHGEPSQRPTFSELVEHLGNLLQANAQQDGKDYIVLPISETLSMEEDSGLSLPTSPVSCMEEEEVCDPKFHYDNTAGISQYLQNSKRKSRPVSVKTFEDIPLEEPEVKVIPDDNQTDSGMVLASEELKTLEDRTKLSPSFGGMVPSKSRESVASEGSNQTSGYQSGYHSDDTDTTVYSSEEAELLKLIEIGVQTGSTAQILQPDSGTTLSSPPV
T1 sequence (Q12851 whole entry): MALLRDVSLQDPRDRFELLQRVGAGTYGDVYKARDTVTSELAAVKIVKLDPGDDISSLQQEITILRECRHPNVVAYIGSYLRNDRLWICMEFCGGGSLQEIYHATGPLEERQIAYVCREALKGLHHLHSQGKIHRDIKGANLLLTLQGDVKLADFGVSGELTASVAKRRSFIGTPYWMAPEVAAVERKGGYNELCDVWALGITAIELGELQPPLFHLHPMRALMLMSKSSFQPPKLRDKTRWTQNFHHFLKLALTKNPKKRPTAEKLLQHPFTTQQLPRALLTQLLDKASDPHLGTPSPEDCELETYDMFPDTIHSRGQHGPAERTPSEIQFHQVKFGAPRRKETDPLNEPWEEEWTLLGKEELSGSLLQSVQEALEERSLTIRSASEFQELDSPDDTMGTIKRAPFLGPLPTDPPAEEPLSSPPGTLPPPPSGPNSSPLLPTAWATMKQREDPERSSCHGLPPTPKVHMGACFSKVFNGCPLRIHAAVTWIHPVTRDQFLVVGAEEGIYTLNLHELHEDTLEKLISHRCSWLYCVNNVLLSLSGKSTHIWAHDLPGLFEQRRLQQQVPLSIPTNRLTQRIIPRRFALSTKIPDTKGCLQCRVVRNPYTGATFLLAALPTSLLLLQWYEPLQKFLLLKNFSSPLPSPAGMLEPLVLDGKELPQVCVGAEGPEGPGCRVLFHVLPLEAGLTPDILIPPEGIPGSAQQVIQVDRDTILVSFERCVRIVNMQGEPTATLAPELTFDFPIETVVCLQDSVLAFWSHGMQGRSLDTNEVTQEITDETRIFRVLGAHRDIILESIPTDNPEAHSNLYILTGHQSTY
T4 sequence (Q13163 whole entry): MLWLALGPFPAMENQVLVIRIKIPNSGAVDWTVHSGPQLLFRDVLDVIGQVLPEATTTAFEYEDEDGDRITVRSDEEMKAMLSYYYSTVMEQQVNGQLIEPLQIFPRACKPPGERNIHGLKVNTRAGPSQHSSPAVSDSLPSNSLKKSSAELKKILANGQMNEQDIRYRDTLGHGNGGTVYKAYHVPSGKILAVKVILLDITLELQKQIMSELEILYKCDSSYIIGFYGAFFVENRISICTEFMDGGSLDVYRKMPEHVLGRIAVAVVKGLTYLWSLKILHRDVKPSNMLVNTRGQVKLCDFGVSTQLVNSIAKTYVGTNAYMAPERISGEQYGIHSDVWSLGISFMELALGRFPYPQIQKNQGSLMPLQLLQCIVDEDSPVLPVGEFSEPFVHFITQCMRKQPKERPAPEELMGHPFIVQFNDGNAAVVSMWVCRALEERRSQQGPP
T13 sequence (P00533 25-1210): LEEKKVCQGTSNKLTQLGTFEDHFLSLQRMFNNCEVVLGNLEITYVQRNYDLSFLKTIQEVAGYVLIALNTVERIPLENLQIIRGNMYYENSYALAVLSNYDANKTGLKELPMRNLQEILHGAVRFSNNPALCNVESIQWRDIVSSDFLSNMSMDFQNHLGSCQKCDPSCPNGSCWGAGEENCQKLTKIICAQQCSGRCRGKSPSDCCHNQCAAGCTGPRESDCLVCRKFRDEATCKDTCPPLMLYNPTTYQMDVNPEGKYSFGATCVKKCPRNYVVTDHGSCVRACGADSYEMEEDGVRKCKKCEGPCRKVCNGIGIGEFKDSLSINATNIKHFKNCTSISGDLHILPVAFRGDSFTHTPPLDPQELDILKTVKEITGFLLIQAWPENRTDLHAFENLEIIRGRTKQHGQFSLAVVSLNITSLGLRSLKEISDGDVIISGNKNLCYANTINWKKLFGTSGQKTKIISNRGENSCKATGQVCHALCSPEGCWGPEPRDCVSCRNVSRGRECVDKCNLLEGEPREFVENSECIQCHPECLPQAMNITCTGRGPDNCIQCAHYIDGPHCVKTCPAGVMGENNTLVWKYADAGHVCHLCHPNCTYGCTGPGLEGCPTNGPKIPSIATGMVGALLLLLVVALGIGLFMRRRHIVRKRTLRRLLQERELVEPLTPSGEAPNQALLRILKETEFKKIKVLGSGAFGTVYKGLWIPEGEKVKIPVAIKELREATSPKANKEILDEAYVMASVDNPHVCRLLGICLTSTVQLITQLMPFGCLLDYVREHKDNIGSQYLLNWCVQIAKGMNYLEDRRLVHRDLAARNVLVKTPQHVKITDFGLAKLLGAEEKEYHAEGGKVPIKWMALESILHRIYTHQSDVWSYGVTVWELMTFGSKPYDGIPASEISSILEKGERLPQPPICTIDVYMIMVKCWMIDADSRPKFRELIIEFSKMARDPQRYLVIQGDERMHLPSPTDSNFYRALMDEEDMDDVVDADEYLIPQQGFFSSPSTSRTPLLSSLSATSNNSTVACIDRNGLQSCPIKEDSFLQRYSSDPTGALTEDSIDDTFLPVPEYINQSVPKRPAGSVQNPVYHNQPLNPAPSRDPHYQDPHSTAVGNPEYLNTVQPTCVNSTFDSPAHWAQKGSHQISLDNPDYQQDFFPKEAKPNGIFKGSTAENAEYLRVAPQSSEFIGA

For `NCC(N)C(=O)Nc1ccc(-c2nc3ccccc3s2)cc1` (stereo not shown) [MBP-11901], the bioavailability [1] was “significantly high”, the half-life [1] was “long” and the remaining binding at 10 µM (MAP4K2; [4]) was 8.6%. The Kd (MAP4K2; MAP4K2, mean ± S.D. (n = 2)) was 1.1 µM, the remaining binding at 10 µM (PDGFRβ; [4]) was 33% and the Kd (PDGFRβ; PDGFRβ, mean ± S.D. (n = 2)) was 4 ± 0.22 µM. The remaining binding at 10 µM (FLT3; [4]) was 16%, the Kd (FLT3; FLT3, mean ± S.D. (n = 2)) was 0.295 ± 0.005 µM and the remaining binding at 10 µM (MEK5; [4]) was 3.3%. For the same compound, the Kd (MEK5; MEK5) was over 30 µM, the remaining binding at 10 µM (VEGFR2; [4]) was 30% and the Kd (VEGFR2; VEGFR2, mean ± S.D. (n = 2)) was 3.55 ± 0.25 µM. For the same compound, the remaining binding at 10 µM (FLT3(K663Q)) was 7.5%, the remaining binding at 10 µM (FLT3(N841I)) was 20% and the remaining binding at 10 µM (FLT3(D835H)) was 33%. The remaining binding at 10 µM (FLT3(D835Y)) was 11%, the remaining binding at 10 µM (FLT3(D835V)) was 1.6% and the remaining binding at 10 µM (FLT3- autoinhibited) was 19%. The “levels of cleaved PARP and active caspase-3” value [2] was “high levels”, the “level of GPT” value ([3]; 4 weeks) was “within the normal range” and the “Ratio of average luminescence intensity to that of the saline group before administration” value (shortened to “Ratio of average luminescence intensity”) ([3]; 0 w (immediately before administration)) was 0.77 ± 0.8 fold. The “Ratio of average luminescence intensity” value ([3]; 1 w) was 2.24 ± 2.9 fold, the “Ratio of average luminescence intensity” value ([3]; 2 w) was 0.83 ± 1.8 fold and the “Ratio of average luminescence intensity” value ([3]; 3 w) was 0.03 ± 0.1 fold. For the same compound, the “Ratio of average luminescence intensity” value ([3]; 4 w) was 0.02 ± 0.0 fold, the Kd (FGFR1) was over 30 µM and the Kd (EGFR) was over 30 µM. The Kd (FGFR2) was over 30 µM, the Kd (KIT) was 3.85 ± 1.15 µM and the “mitochondrial potential (JC-1)” value (HepG2 cells) was “decrease in mitochondrial potential”. It also gave an IC50 (MDA-MB-231) of 62 ± 6.5 µM.
